{"source": "ChEMBL document CHEMBL4024734", "about": "“Design, synthesis, biological evaluation and molecular docking studies of novel 3-aryl-4-anilino-2H-chromen-2-one derivatives targeting ERα as anti-breast cancer agents” (Bioorg Med Chem Lett, 2017)", "key": {"[1]": {"test_system": "MCF7", "assay": "Antiproliferative activity against ER positive human MCF7 cells after 48 hrs by MTT assay", "format": "functional, cell-based", "conditions": "MCF7, 48 h"}, "[2]": {"test_system": "Ishikawa", "assay": "Antiproliferative activity against human Ishikawa cells after 48 hrs by MTT assay", "format": "functional, cell-based"}, "[3]": {"target": "T1, Estrogen receptor (Homo sapiens) (UniProt P03372)", "T1 sequence (whole entry)": "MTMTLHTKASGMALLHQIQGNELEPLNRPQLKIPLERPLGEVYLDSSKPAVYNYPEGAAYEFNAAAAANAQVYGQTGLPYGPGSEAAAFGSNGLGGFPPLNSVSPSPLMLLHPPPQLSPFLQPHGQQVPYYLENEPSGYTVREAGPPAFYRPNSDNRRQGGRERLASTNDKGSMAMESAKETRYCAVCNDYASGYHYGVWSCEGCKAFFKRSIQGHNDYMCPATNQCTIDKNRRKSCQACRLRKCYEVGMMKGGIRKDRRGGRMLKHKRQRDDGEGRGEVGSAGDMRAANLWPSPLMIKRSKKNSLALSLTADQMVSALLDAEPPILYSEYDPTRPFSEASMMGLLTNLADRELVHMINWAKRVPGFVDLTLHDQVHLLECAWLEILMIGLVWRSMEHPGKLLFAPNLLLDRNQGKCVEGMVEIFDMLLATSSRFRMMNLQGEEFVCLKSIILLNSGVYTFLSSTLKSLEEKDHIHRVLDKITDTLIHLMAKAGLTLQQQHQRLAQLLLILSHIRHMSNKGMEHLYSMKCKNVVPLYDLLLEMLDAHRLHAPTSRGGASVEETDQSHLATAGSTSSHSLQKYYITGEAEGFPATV", "assay": "Displacement of fluoromone from full length recombinant human estrogen receptor alpha expressed in Spodoptera frugiperda at 100 uM measured after 2 hrs by fluorescence polarization assay relative to control"}, "[4]": {"test_system": "MCF7", "assay": "Potency index, ratio of tamoxifen IC50 to compound IC50 against human MCF7 cells", "format": "functional"}}, "data": [{"molecule": "CCN(CC)CCOc1ccc(Nc2c(-c3ccc(OC)cc3)c(=O)oc3cc(O)ccc23)cc1", "values": [{"measurement": "IC50", "setting": "[1]", "result": 8.81, "unit": "µM"}, {"measurement": "IC50", "setting": "[2]", "result": 14.8, "unit": "µM"}]}, {"molecule": "COc1ccc(-c2c(Nc3ccc(OCCN(C)C)cc3)c3ccc(OC)cc3oc2=O)cc1", "values": [{"measurement": "IC50", "setting": "[1]", "result": 8.32, "unit": "µM"}, {"measurement": "IC50", "setting": "[2]", "result": 12.2, "unit": "µM"}]}, {"molecule": "CC/C(=C(\\c1ccccc1)c1ccc(OCCN(C)C)cc1)c1ccccc1", "note": "[TAMOXIFEN]", "values": [{"measurement": "IC50", "setting": "[1]", "result": 11.3, "unit": "µM"}]}, {"molecule": "COc1ccc(-c2c(Nc3ccc(OCCN4CCOCC4)cc3)c3ccccc3oc2=O)cc1", "values": [{"measurement": "IC50", "setting": "[1]", "result": 47.5, "unit": "µM"}, {"measurement": "IC50", "setting": "[2]", "result": 49.5, "unit": "µM"}, {"measurement": "RBA", "setting": "[3]", "result": 17, "unit": "%"}]}, {"molecule": "COc1ccc(-c2c(Nc3ccc(OCCN4CCCC4)cc3)c3ccc(O)cc3oc2=O)cc1", "values": [{"measurement": "IC50", "setting": "[1]", "result": 8.42, "unit": "µM"}, {"measurement": "IC50", "setting": "[2]", "result": 11.8, "unit": "µM"}]}, {"molecule": "COc1ccc(-c2c(Nc3ccc(OCCN4CCCC4)cc3)c3ccccc3oc2=O)cc1", "values": [{"measurement": "IC50", "setting": "[1]", "result": 6.21, "unit": "µM"}, {"measurement": "IC50", "setting": "[2]", "result": 9.3, "unit": "µM"}]}, {"molecule": "COc1ccc(-c2c(Nc3ccc(OCCN4CCN(C)CC4)cc3)c3ccc(OC)cc3oc2=O)cc1", "values": [{"measurement": "IC50", "setting": "[1]", "result": 12.4, "unit": "µM"}, {"measurement": "IC50", "setting": "[2]", "result": 15.2, "unit": "µM"}]}, {"molecule": "COc1ccc(-c2c(Nc3ccc(OCCN4CCN(C)CC4)cc3)c3ccccc3oc2=O)cc1", "values": [{"measurement": "IC50", "setting": "[1]", "result": 15.6, "unit": "µM"}, {"measurement": "IC50", "setting": "[2]", "result": 23.4, "unit": "µM"}]}, {"molecule": "COc1ccc(-c2c(Nc3ccc(OCCN4CCCCC4)cc3)c3ccc(OC)cc3oc2=O)cc1", "values": [{"measurement": "IC50", "setting": "[1]", "result": 4.52, "unit": "µM"}, {"measurement": "IC50", "setting": "[2]", "result": 11.6, "unit": "µM"}, {"measurement": "Ratio IC50", "setting": "[4]", "result": 3}]}, {"molecule": "COc1ccc(-c2c(Nc3ccc(OCCN4CCN(C)CC4)cc3)c3ccc(O)cc3oc2=O)cc1", "values": [{"measurement": "IC50", "setting": "[1]", "result": 17.6, "unit": "µM"}, {"measurement": "IC50", "setting": "[2]", "result": 19.4, "unit": "µM"}]}, {"molecule": "COc1ccc(-c2c(Nc3ccc(OCCN4CCOCC4)cc3)c3ccc(OC)cc3oc2=O)cc1", "values": [{"measurement": "IC50", "setting": "[1]", "result": "> 100", "unit": "µM"}, {"measurement": "IC50", "setting": "[2]", "result": "> 100", "unit": "µM"}, {"measurement": "RBA", "setting": "[3]", "result": 24, "unit": "%"}]}, {"molecule": "COc1ccc(-c2c(Nc3ccc(OCCN4CCCCC4)cc3)c3ccccc3oc2=O)cc1", "values": [{"measurement": "IC50", "setting": "[1]", "result": 5.86, "unit": "µM"}, {"measurement": "IC50", "setting": "[2]", "result": 8.74, "unit": "µM"}]}, {"molecule": "COc1ccc(-c2c(Nc3ccc(OCCN(C)C)cc3)c3ccc(O)cc3oc2=O)cc1", "values": [{"measurement": "IC50", "setting": "[1]", "result": 9.53, "unit": "µM"}, {"measurement": "IC50", "setting": "[2]", "result": 13.2, "unit": "µM"}]}, {"molecule": "CCN(CC)CCOc1ccc(Nc2c(-c3ccc(OC)cc3)c(=O)oc3ccccc23)cc1", "values": [{"measurement": "IC50", "setting": "[1]", "result": 7.57, "unit": "µM"}, {"measurement": "IC50", "setting": "[2]", "result": 10.8, "unit": "µM"}]}, {"molecule": "COc1ccc(-c2c(Nc3ccc(OCCN4CCCC4)cc3)c3ccc(OC)cc3oc2=O)cc1", "values": [{"measurement": "IC50", "setting": "[1]", "result": 6.51, "unit": "µM"}, {"measurement": "IC50", "setting": "[2]", "result": 9.39, "unit": "µM"}]}, {"molecule": "COc1ccc(-c2c(Nc3ccc(OCCN4CCOCC4)cc3)c3ccc(O)cc3oc2=O)cc1", "values": [{"measurement": "IC50", "setting": "[1]", "result": "> 100", "unit": "µM"}, {"measurement": "IC50", "setting": "[2]", "result": "> 100", "unit": "µM"}]}, {"molecule": "COc1ccc(-c2c(Nc3ccc(OCCN(C)C)cc3)c3ccccc3oc2=O)cc1", "values": [{"measurement": "IC50", "setting": "[1]", "result": 8.76, "unit": "µM"}, {"measurement": "IC50", "setting": "[2]", "result": 11.8, "unit": "µM"}]}, {"molecule": "COc1ccc(-c2c(Nc3ccc(OCCN4CCCCC4)cc3)c3ccc(O)cc3oc2=O)cc1", "values": [{"measurement": "IC50", "setting": "[1]", "result": 7.31, "unit": "µM"}, {"measurement": "IC50", "setting": "[2]", "result": 8.43, "unit": "µM"}]}, {"molecule": "CCN(CC)CCOc1ccc(Nc2c(-c3ccc(OC)cc3)c(=O)oc3cc(OC)ccc23)cc1", "values": [{"measurement": "IC50", "setting": "[1]", "result": 10.2, "unit": "µM"}, {"measurement": "IC50", "setting": "[2]", "result": 8.84, "unit": "µM"}]}]}
